Experimental data: publication PMC6120877, “Intriguing role of water in protein-ligand binding studied by neutron crystallography on trypsin complexes” (Nature Communications, 2018)

How the values were obtained:
bovine β-trypsin [1] = molecular target: T1, bovine β-trypsin (Bos taurus, UniProt P00760); experiment: Direct ITC titration, trypsin; format: binding; conditions: for number of protons transferred from the buffer onto trypsin upon complex formation (slope of interpolation function): ∆H° vs. buffer ionization enthalpy, three buffers
T1 construct: dialyzing a solution of bovine β-trypsin (Sigma Aldrich, product number T8003); purchased Sigma Aldrich T8003
T1 sequence (P00760 24-246): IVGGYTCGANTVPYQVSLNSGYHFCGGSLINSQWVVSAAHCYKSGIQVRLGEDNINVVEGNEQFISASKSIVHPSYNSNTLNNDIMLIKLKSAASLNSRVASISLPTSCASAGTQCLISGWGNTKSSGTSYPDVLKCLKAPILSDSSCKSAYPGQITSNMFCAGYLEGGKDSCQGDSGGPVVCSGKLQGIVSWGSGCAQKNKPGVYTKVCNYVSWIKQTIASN
Protocol: To determine dissociation constants for trypsin:inhibitor complexes, two different isothermal titration calorimetry (ITC) titration protocols were used. […] Protein samples were prepared by dialyzing a solution of bovine β-trypsin (Sigma Aldrich, product number T8003) against a buffer composed of 80 mM NaCl, 10 mM CaCl2, 0.1 % (w/v) PEG 8000 and 100 mM HEPES, Tricine or Tris at a pH of 7.6 and a temperature of 4 °C while ligands were dissolved in buffer. […] Titrations were performed in three different buffer systems to enable the correction for any proton transfer occurring between buffer and protein upon complex formation. For this purpose, the obtained ∆H° values were plotted against the ionization enthalpy of the used buffer yielding a buffer-corrected enthalpy as the intercept (for more details see footnote b in Supplementary Tables 2 and 3). […] Applying the same protocol and data analysis scheme as used in an earlier study, ITC titrations were performed on an ITC200 device (GE Healthcare) at 25 °C with a reference power of 5 µcal s^−1. The ITC protocol consisted of an initial 0.3 µl volume injection and of 20–25 injections with a volume between 1.5 and 1.8 µl separated by a 220 s time interval. For data analysis, the method described by Turnbull et al. was applied.

bovine trypsin = molecular target: T2, bovine trypsin (Bos taurus, UniProt P00760); experiment: Kinetic fluorescence enzyme inhibition assay, trypsin; format: biochemical; conditions: for Ki: fluorescence assay, D-Phe-Pro derivatives
T2 construct: purchased Worthington Biochemical Corporation LS003707
T2 sequence (P00760 24-246): T1 sequence (P00760 24-246)
Protocol: Following the same approach as used in an earlier study, kinetic data were obtained in black 96-well plates using a Fluoroskan Ascent fluorometer (Thermo Fisher Scientific, Vantaa/Finland; λex = 355 nm, λem = 460 nm). The assay was performed at room temperature in a buffer composed of 43 mM Tris pH 7.8, 132 mM NaCl and 0.0086 % (w/v) PEG 8000. The final trypsin concentration was 65 pM. […] The D-Phe-Pro analogs were dissolved in DMSO and further diluted in buffer to yield a final DMSO concentration in the assay well below 1% (v/v). Mes-d-Arg-Gly-Arg-AMC (Mes = mesyl; AMC = […]) available from a previous study was used as the substrate. […] The uninhibited trypsin-catalyzed reaction was investigated in parallel at the three substrate concentrations 6.3, 12.5, and 25 µM. […] For this purpose, a non-linear fit to the Michaelis-Menten equation modified for reversible competitive inhibitors was used.

human thrombin = molecular target: T3, human thrombin (Homo sapiens, UniProt P00734); experiment: Kinetic fluorescence enzyme inhibition assay, thrombin; format: biochemical; conditions: D-Phe-Pro derivatives
T3 construct: The analogous assay was applied to human thrombin, which was kindly provided by CSL Behring; purchased CSL Behring

bovine β-trypsin [2] = molecular target: T1, bovine β-trypsin; experiment: Displacement ITC titration, trypsin (displacement ligand compound 2); format: binding; conditions: HEPES
Protocol: Sample preparations, measurements and data analyses were performed using the same approach as for our earlier study, which is described in the following. […] ITC data were collected using an ITC200 device (GE Healthcare) at 25 °C with a reference power of 5 µcal s^−1. An initial 0.3 µl volume injection was followed by 19 injections with a volume of 1.9 µl.

[3] = buffer-corrected (average over three buffers), 3% (v/v) DMSO
[4] = buffer-corrected (difference between ∆G° and ∆H°), 3% (v/v) DMSO
[5] = buffer-corrected (intercept at ionization enthalpy 0), 3% (v/v) DMSO
[6] = direct titration, HEPES, 3% (v/v) DMSO
[7] = direct titration, Tricine, 3% (v/v) DMSO
[8] = direct titration, Tris, 3% (v/v) DMSO

For N=C(N)N1CCC(CNC(=O)[C@@H]2CCCN2C(=O)[C@H](N)Cc2ccccc2)CC1.O=C(O)C(F)(F)F.O=C(O)C(F)(F)F [Compound 1], the Kd (bovine β-trypsin [1]; [3]) was 3600 nM, the “∆G°” value (bovine β-trypsin [1]; [3]) was -7.43 kcal/mol and the “–T∆S°” value (bovine β-trypsin [1]; [4]) was -2.22 kcal/mol. The “∆H°” value (bovine β-trypsin [1]; [5]) was -5.21 kcal/mol, the Kd (bovine β-trypsin [1]; [6]) was 3700 ± 200 nM and the “–T∆S°” value (bovine β-trypsin [1]; [6]) was -2.77 ± 0.072 kcal/mol. For the same molecule, the “∆G°” value (bovine β-trypsin [1]; [6]) was -7.41 ± 0.048 kcal/mol, the “∆H°” value (bovine β-trypsin [1]; [6]) was -4.64 ± 0.072 kcal/mol and the Kd (bovine β-trypsin [1]; [7]) was 3300 ± 300 nM. For the same molecule, the “–T∆S°” value (bovine β-trypsin [1]; [7]) was -3.15 ± 0.12 kcal/mol, the “∆G°” value (bovine β-trypsin [1]; [7]) was -7.48 ± 0.048 kcal/mol and the “∆H°” value (bovine β-trypsin [1]; [7]) was -4.33 ± 0.12 kcal/mol. For the same molecule, the Kd (bovine β-trypsin [1]; [8]) was 3700 ± 600 nM, the “–T∆S°” value (bovine β-trypsin [1]; [8]) was -3.51 ± 0.17 kcal/mol and the “∆G°” value (bovine β-trypsin [1]; [8]) was -7.41 ± 0.096 kcal/mol. The “∆H°” value (bovine β-trypsin [1]; [8]) was -3.9 ± 0.14 kcal/mol, the “number of protons transferred from the buffer onto trypsin upon complex formation (slope of interpolation function)” value (“number … (slope of interpolation function)” below) (bovine β-trypsin [1]; 3% (v/v) DMSO) was 0.12 and the Ki (bovine trypsin) was 1960 ± 264 nM. The Ki (human thrombin) was 4.51 ± 0.25 nM.

In the case of N=C(N)c1ccccc1 [Benzamidine, benzamidine], the “–T∆S°” value (bovine β-trypsin [1]; direct titration, HEPES) is reported as -3.59 ± 0.072 kcal/mol, the “∆G°” value (bovine β-trypsin [1]; direct titration, HEPES) is reported as -6.38 ± 0.072 kcal/mol and the “∆H°” value (bovine β-trypsin [1]; direct titration, HEPES) is reported as -2.8 ± 0.024 kcal/mol. The “–T∆S°” value (bovine β-trypsin [1]; direct titration, Tricine) was -2.53 ± 0.14 kcal/mol, the “∆G°” value (bovine β-trypsin [1]; direct titration, Tricine) was -6.33 ± 0.0096 kcal/mol and the “∆H°” value (bovine β-trypsin [1]; direct titration, Tricine) was -3.8 ± 0.14 kcal/mol. The “–T∆S°” value (bovine β-trypsin [1]; direct titration, Tris) was -1.58 ± 0.096 kcal/mol, the “∆G°” value (bovine β-trypsin [1]; direct titration, Tris) was -6.33 ± 0.0072 kcal/mol and the “∆H°” value (bovine β-trypsin [1]; direct titration, Tris) was -4.76 ± 0.096 kcal/mol. The “∆G°” value (bovine β-trypsin [1]; direct titration, buffer-corrected (average over three buffers)) was -6.36 kcal/mol, the “–T∆S°” value (bovine β-trypsin [1]; direct titration, buffer-corrected (difference between ∆G° and ∆H°)) was -5.02 kcal/mol and the “∆H°” value (bovine β-trypsin [1]; direct titration, buffer-corrected (intercept at ionization enthalpy 0)) was -1.34 kcal/mol. For the same molecule, the “number … (slope of interpolation function)” value (bovine β-trypsin [1]) was -0.31, the “stronger inhibition of trypsin than N-amidinopiperidine” value (bovine trypsin; benzamidine vs. N-amidinopiperidine) was “about 10 fold” and the “–T∆S°” value (bovine β-trypsin [2]) was -2.44 ± 0.22 kcal/mol. The “∆G°” value (bovine β-trypsin [2]) was -6.31 ± 0.14 kcal/mol and the “∆H°” value (bovine β-trypsin [2]) was -3.85 ± 0.17 kcal/mol.

For N=C(N)c1ccc(CNC(=O)[C@@H]2CCCN2C(=O)[C@H](N)Cc2ccccc2)cc1 [Compound 2], the Kd (bovine β-trypsin [1]; [3]) was 34 nM, the “∆G°” value (bovine β-trypsin [1]; [3]) was -10.2 kcal/mol and the “–T∆S°” value (bovine β-trypsin [1]; [4]) was -1.05 kcal/mol. The “∆H°” value (bovine β-trypsin [1]; [5]) was -9.13 kcal/mol, the Kd (bovine β-trypsin [1]; [6]) was 38 ± 7 nM and the “–T∆S°” value (bovine β-trypsin [1]; [6]) was -1.65 ± 0.19 kcal/mol. The “∆G°” value (bovine β-trypsin [1]; [6]) was -10.1 ± 0.096 kcal/mol, the “∆H°” value (bovine β-trypsin [1]; [6]) was -8.48 ± 0.17 kcal/mol and the Kd (bovine β-trypsin [1]; [7]) was 34 ± 3 nM. The “–T∆S°” value (bovine β-trypsin [1]; [7]) was -2.63 ± 0.096 kcal/mol, the “∆G°” value (bovine β-trypsin [1]; [7]) was -10.2 ± 0.048 kcal/mol and the “∆H°” value (bovine β-trypsin [1]; [7]) was -7.55 ± 0.096 kcal/mol. For the same molecule, the Kd (bovine β-trypsin [1]; [8]) was 31 ± 5 nM, the “–T∆S°” value (bovine β-trypsin [1]; [8]) was -2.87 ± 0.14 kcal/mol and the “∆G°” value (bovine β-trypsin [1]; [8]) was -10.2 ± 0.096 kcal/mol. The “∆H°” value (bovine β-trypsin [1]; [8]) was -7.39 ± 0.096 kcal/mol, the “number … (slope of interpolation function)” value (bovine β-trypsin [1]; 3% (v/v) DMSO) was 0.17 and the Ki (bovine trypsin) was 15.2 ± 0.2 nM.
